In ChEMBL document CHEMBL1136502, “Novel mechanism of inhibiting beta-lactamases by sulfonylation using beta-sultams” (Bioorg Med Chem Lett, 2003):

Assays:
Beta-lactamase = Beta-lactamase (Enterobacter cloacae, UniProt P05364); assay: Inhibitor activity against Beta-lactamase, derived from the Gram negative bacteria Enterobacter cloacae at pH 7
[1] = pKa value was determined; type: physicochemical

Sequence of Beta-lactamase (P05364 whole entry): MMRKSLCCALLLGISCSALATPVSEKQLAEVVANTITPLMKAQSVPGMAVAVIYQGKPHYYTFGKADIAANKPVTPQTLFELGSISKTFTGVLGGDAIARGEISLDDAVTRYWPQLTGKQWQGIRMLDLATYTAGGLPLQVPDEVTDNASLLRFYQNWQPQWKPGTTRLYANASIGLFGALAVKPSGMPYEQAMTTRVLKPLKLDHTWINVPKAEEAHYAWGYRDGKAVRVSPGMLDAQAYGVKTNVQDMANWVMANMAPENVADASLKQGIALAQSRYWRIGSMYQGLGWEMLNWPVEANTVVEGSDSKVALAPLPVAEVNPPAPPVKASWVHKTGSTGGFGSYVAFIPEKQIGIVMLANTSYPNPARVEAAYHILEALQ

CC(C)C1CN(C(=O)c2ccccc2)S1(=O)=O (stereo not drawn)
kinact/Ki (Beta-lactamase): 0.07 M⁻¹ s⁻¹

O=C(c1ccccc1)N1CCS1(=O)=O
pKa [1]: 6.3 | kinact/Ki (Beta-lactamase): 163 M⁻¹ s⁻¹
